Structures are written as SMILES.

The test addresses T1, human RIPK1 (1-375) (Homo sapiens, UniProt Q13546).
T1 construct: human RIPK1 (1-375) gene; GST; made in house; host or cells: Sf-9 insect cells
T1 sequence (Q13546 1-375): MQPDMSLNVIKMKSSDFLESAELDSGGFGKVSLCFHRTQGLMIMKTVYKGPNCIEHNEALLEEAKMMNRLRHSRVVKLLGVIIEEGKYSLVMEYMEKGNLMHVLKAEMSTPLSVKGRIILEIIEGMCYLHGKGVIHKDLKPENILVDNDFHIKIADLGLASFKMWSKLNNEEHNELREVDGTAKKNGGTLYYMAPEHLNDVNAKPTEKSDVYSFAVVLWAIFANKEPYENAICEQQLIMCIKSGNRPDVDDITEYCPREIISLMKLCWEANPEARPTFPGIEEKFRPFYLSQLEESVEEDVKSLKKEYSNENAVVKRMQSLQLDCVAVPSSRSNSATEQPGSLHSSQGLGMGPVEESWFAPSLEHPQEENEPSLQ
Briefly: Human RIPK1 enzyme inhibitory effect (ADP-Glo Kinase Assay). It is filed as biochemical. The conditions noted are these: well without enzyme = 100% inhibition; for inhibition at 10 µM: read-out: human RIPK1 enzyme inhibitory effect at 10 μM (% inhibition), 10 μM test compound. As for the experimental part: Experimental Example 1: Human RIPK1 Enzyme Inhibitory Effect
Enzyme was prepared by transducing human RIPK1 (1-375) gene to Sf-9 insect cells, and purifying using GST affinity column, and enzyme activity evaluation was performed using the enzyme. The enzyme was used after preservation at −70° C. The RIPK1 enzyme inhibitory activity of the test compound was measured using ADP-Glo™ Kinase Assay (Promega) according the following experiment methods. The test compound diluted with assay buffer (25 mM HEPES (pH 7.5), 10 mM MgCl2, 0.01% Tween-20, 2 mM DTT) was added to 384 well plate by each 2 μL. Next, RIPK1 enzyme solution diluted with the assay buffer was added thereto by each 2 μL, and the mixture was incubated at room temperature for 20 min. After the incubation, 0.6 mM ATP solution was added thereto by each 2 μL to initiate an enzyme reaction. The mixture was incubated at room temperature for 120 min, and ADP-Glo solution prepared according to Promega protocol was added to the 384 well plate by each 3 μL, and the reaction was performed at room temperature for 40 min. Then, Kinase-Detection solution was added to the 384 well plate by each 6 μL, and the reaction was performed at room temperature for 40 min. After the reaction, the luminescence intensity was measured by plate reader Envision (PerkinElmer).

In the case of `CN1C(=O)C(N2CCc3c(nn(Cc4ccccc4F)c3Cl)C2=O)CCc2nn(C)cc21` (centres unmarked) [Example 119, 6-(3-chloro-2-(2-fluorobenzyl)-7-oxo-2,4,5,7-tetrahydro-6H-pyrazolo[3,4-c]pyridin-6-yl)-2,4-dimethyl-2,6,7,8-tetrahydropyrazolo[4,3-b]azepin-5(4H)-one], the inhibition (as a rule, the relative decrease from the control value, in per cent) at 10 µM turned out to be 97%. As to `CN1C(=O)C(N2CCc3c(nn(Cc4ccccc4F)c3Cl)C2=O)CCc2c1cnn2C` (centres unmarked) [Example 129, 6-(3-chloro-2-(2-fluorobenzyl)-7-oxo-2,4,5,7-tetrahydro-6H-pyrazolo[3,4-c]pyridin-6-yl)-1,4-dimethyl-4,6,7,8-tetrahydropyrazolo[4,3-b]azepin-5(1H)-one], the inhibition at 10 µM was found to be 98%. For `CN1C(=O)[C@@H](N2CCc3sc(Cc4ccccc4)nc3C2=O)COc2ccccc21` [Example 16, (3S)-3-(2-benzyl-4-oxo-6,7-dihydro[1,3]thiazolo[4,5-c]pyridin-5(4H)-yl)-5-methyl-2,3-dihydro-1,5-benzoxazepin-4(5H)-one], the inhibition at 10 µM amounted to 98%.

Regarding `CN1C(=O)[C@@H](N2CCc3cn(CC4CCC4)nc3C2=O)COc2ccccc21` [Example 31, (3S)-3-(2-(cyclobutylmethyl)-7-oxo-2,4,5,7-tetrahydro-6H-pyrazolo[3,4-c]pyridin-6-yl)-5-methyl-2,3-dihydro-1,5-benzoxazepin-4(5H)-one], the inhibition at 10 µM amounted to 98%. Still for that read-out and setting: next, `COc1cccc(Cn2cc3c(n2)C(=O)N([C@H]2COc4ccccc4N(C)C2=O)CC3)c1` [Example 155, (3S)-3-(2-(3-methoxybenzyl)-7-oxo-2,4,5,7-tetrahydro-6H-pyrazolo[3,4-c]pyridin-6-yl)-5-methyl-2,3-dihydro-1,5-benzoxazepin-4(5H)-one]: 97%; `CN1C(=O)[C@@H](N2CCc3ccc(Cc4ccccc4)nc3C2=O)COc2ccccc21` [Example 17, (3S)-3-(2-benzyl-8-oxo-5,8-dihydro-1,7-naphthyridin-7(6H)-yl)-5-methyl-2,3-dihydro-1,5-benzoxazepin-4(5H)-one]: 97%; `Cc1nccnc1Cn1nc2c(c1Cl)CCN([C@H]1COc3ccccc3N(C)C1=O)C2=O` [Example 73, (3S)-3-(3-chloro-2-((3-methylpyrazin-2-yl)methyl)-7-oxo-2,4,5,7-tetrahydro-6H-pyrazolo[3,4-c]pyridin-6-yl)-5-methyl-2,3-dihydro-1,5-benzoxazepin-4(5H)-one]: 91%. Still for that read-out and setting: next, `CN1C(=O)[C@@H](N2CCc3cn(Cc4ccccc4)nc3C2=O)CSc2ccccc21` [Example 19, (3R)-3-(2-benzyl-7-oxo-2,4,5,7-tetrahydro-6H-pyrazolo[3,4-c]pyridin-6-yl)-5-methyl-2,3-dihydro-1,5-benzothiazepin-4(5H)-one]: 99%; `CN1C(=O)[C@@H](N2CCc3cn(Cc4ncco4)nc3C2=O)COc2ccccc21` [Example 35, (3S)-5-methyl-3-(2-(1,3-oxazol-2-ylmethyl)-7-oxo-2,4,5,7-tetrahydro-6H-pyrazolo[3,4-c]pyridin-6-yl)-2,3-dihydro-1,5-benzoxazepin-4(5H)-one]: 96%; `CNC(=O)c1ccc2c(c1)OC[C@H](N1CCc3cn(Cc4c(F)cccc4F)nc3C1=O)C(=O)N2C` [Example 116, (3S)-3-(2-(2,6-difluorobenzyl)-7-oxo-2,4,5,7-tetrahydro-6H-pyrazolo[3,4-c]pyridin-6-yl)-N,5-dimethyl-4-oxo-2,3,4,5-tetrahydro-1,5-benzoxazepine-8-carboxamide]: 101%. For the molecule `CN1C(=O)[C@@H](N2CCc3cn(Cc4ncccn4)nc3C2=O)COc2ccccc21` [Example 36, (3S)-5-methyl-3-(7-oxo-2-(pyrimidin-2-ylmethyl)-2,4,5,7-tetrahydro-6H-pyrazolo[3,4-c]pyridin-6-yl)-2,3-dihydro-1,5-benzoxazepin-4(5H)-one], the inhibition at 10 µM came out at 86%.

Regarding `CN1C(=O)[C@@H](N2CCc3cn(Cc4cccc(F)c4)nc3C2=O)COc2ccccc21` [Example 158, (3S)-3-(2-(3-fluorobenzyl)-7-oxo-2,4,5,7-tetrahydro-6H-pyrazolo[3,4-c]pyridin-6-yl)-5-methyl-2,3-dihydro-1,5-benzoxazepin-4(5H)-one], the inhibition at 10 µM was 99%. On the same count and under the same terms, next, `CN1C(=O)[C@@H](N2CCc3c(nn(Cc4ccccc4)c3Cl)C2=O)COc2cc(-c3ccn(C)n3)c(F)cc21` [Example 125, (3S)-3-(2-benzyl-3-chloro-7-oxo-2,4,5,7-tetrahydro-6H-pyrazolo[3,4-c]pyridin-6-yl)-7-fluoro-5-methyl-8-(1-methyl-1H-pyrazol-3-yl)-2,3-dihydro-1,5-benzoxazepin-4(5H)-one]: 101%; `CN1C(=O)[C@@H](N2CCc3cn(Cc4ccccc4F)nc3C2=O)COc2cc(C#N)ccc21` [Example 43, (3S)-3-(2-(2-fluorobenzyl)-7-oxo-2,4,5,7-tetrahydro-6H-pyrazolo[3,4-c]pyridin-6-yl)-5-methyl-4-oxo-2,3,4,5-tetrahydro-1,5-benzoxazepine-8-carbonitrile]: 97%; `CC1Cc2cn(Cc3ccccc3)nc2C(=O)N1[C@H]1COc2ccccc2N(C)C1=O` (stereo partly drawn) [Example 68, (3S)-3-(2-benzyl-5-methyl-7-oxo-2,4,5,7-tetrahydro-6H-pyrazolo[3,4-c]pyridin-6-yl)-5-methyl-2,3-dihydro-1,5-benzoxazepin-4(5H)-one]: 100%.

On to `CN1C(=O)[C@@H](N2CCc3c(nn(Cc4ccccc4)c3C3CC3)C2=O)COc2ccccc21` [Example 159, (3S)-3-(2-benzyl-3-cyclopropyl-7-oxo-2,4,5,7-tetrahydro-6H-pyrazolo[3,4-c]pyridin-6-yl)-5-methyl-2,3-dihydro-1,5-benzoxazepin-4(5H)-one], for which the inhibition at 10 µM amounted to 100%. Same read-out and setting: next, `CN1C(=O)[C@@H](N2CCc3c(nn(Cc4ccccc4)c3Cl)C2=O)COc2cc(C(=O)O)ccc21` [Example 61, (3S)-3-(2-benzyl-3-chloro-7-oxo-2,4,5,7-tetrahydro-6H-pyrazolo[3,4-c]pyridin-6-yl)-5-methyl-4-oxo-2,3,4,5-tetrahydro-1,5-benzoxazepine-8-carboxylic acid]: 100%; `CN1C(=O)[C@@H](N2CCc3cn(Cc4ccccc4F)nc3C2=O)COc2ccc(Br)cc21` [Example 138, (3S)-7-bromo-3-(2-(2-fluorobenzyl)-7-oxo-2,4,5,7-tetrahydro-6H-pyrazolo[3,4-c]pyridin-6-yl)-5-methyl-2,3-dihydro-1,5-benzoxazepin-4(5H)-one]: 101%. The same measure, in the same setting: next, `CN1C(=O)[C@@H](N2CCc3cn(CC4CC4)nc3C2=O)COc2ccccc21` [Example 27, (3S)-3-(2-(cyclopropylmethyl)-7-oxo-2,4,5,7-hydro-6H-pyrazolo[3,4-c]pyridin-6-yl)-5-methyl-2,3-dihydro-1,5-benzoxazepin-4(5H)-one]: 93%.

For `CN1C(=O)C(N2CCc3c(nn(Cc4ccccc4)c3Cl)C2=O)CCc2cccnc21` (centres unmarked) [Example 93, 7-(2-benzyl-3-chloro-7-oxo-2,4,5,7-tetrahydro-6H-pyrazolo[3,4-c]pyridin-6-yl)-9-methyl-5,6,7,9-tetrahydro-8H-pyrido[2,3-b]azepin-8-one], the “human RIPK1 enzyme inhibitory effect at 10 μM (% inhibition)” value (10 μM test compound, 10 µM) is 69%.

Values taken from US10787462B2, “Heterocyclic compound” (TAKEDA PHARMACEUTICAL COMPANY LIMITED, priority 2015, dated 2020).
